Experimental data reported in PMC8997995, “Amphiphilic Cell-Penetrating Peptides Containing Natural and Unnatural Amino Acids as Drug Delivery Agents” (Cells, 2022).
Like-named read-outs stand apart in the source and are kept apart here. Non-standard residues stand in square brackets, D forms with d. Residues, ends and D or L forms follow the SMILES beside them. Dip = N[C@H](C(=O)O)C(c1ccccc1)c1ccccc1

Experiments:
[1] = Plasma stability study; format: in vitro ADME; conditions: 500 µM in 25% human plasma in water, 37 °C
Protocol: The metabolic stability of [DipR]5 was assessed in human plasma by using a high-resolution mass spectrometer (LC-QTOF-MS). To remove the background interference, the data were processed by using a narrower (±0.1 m/z) extracted ion chromatogram (EIC) window. Test compound (500 µM) was incubated in 25% human plasma in water at 37 °C. 50 µL aliquots were taken at different time points (0, 0.5, 1, 2, 3, and 13 h), and the plasma proteins were precipitated by the addition of cold ethanol (50 µL) and incubated for 5 min in ice and water. The samples were centrifuged at 7000 RPM for 5 min, and the supernatant (10 µL) was injected into LC-QTOF-MS (Impact II model, Bruker Daltonik, Bremen, Germany). The samples were analyzed on Waters Xterra MS C18 5 µm 2.10 mm × 50 mm column at a flow rate of 0.3 mL/min using a linear gradient of aqueous ACN in the presence of formic acid (0.1%, v/v) as ion pair reagent. The analytes were quantified by their peak areas of EIC. The percentage digestion of the test compound was calculated relative to the peak areas at 0 min.

[2] = tested on: SK-OV-3 cells; format: cell-based, human; conditions: MTS, n = 3
Protocol: SK-OV-3, CCRF-CEM, HEK-293, MDA-MB-468, LLC-PK1, and MES-SA were used to determine the cytotoxicity of the synthesized linear and cyclic peptides. About 5000, 10,000, and 50,000 cells were seeded for SK-OV-3, HEK-293, and CCRF-CEM cells, respectively, in 0.1 mL of medium per well of 96-well plates. An appropriate medium was used for each cell line (SK-OV-3: McCoy’s 5A with L-glutamine containing fetal bovine serum (FBS) (10%) and penicillin or streptomycin (1%); CCRF-CEM: RPMI-1640 medium with L-glutamine and sodium bicarbonate containing FBS (10%) and penicillin or streptomycin (1%); MDA-MB-468 cells: DMEM/F12 (1:1) (1×) with L-glutamine and 15 mM HEPES containing FBS (10%) and penicillin or streptomycin (1%); LLC-PK1 cells: Dulbecco’s Modified Eagle’s Medium with 4500 mg/L glucose, L-glutamine and sodium bicarbonate, without sodium pyruvate liquid containing FBS (10%) and penicillin or streptomycin (1%); MES-SA cells: consisting of half SK-OV-3 and half CCRF-CEM media; and HEK-293 cells: Minimum Essential Medium Eagle with Earle’s salts and sodium bicarbonate, without L-glutamine containing FBS (10%) and penicillin or streptomycin (1%)). Then, 20 µL of peptides containing 5% DMSO in water were added to each well.
Adhesive cells were detached with 0.05% trypsin/EDTA after 15 min. The suspended cells were seeded in the medium 24 h prior to the experiment according to the previously reported procedure. The medium was changed before adding the peptides for adherent cells. Each concentration 5, 10, 25, 50, and 166 µM (containing 0.8% DMSO) had triplicate wells to minimize possible errors. […] The cell viability was measured by utilizing Multi-Mode Microplate Reader (SpectraMax M5 model, Molecular Devices, San Jose, CA, USA) after adding 20 µL of the MTS reagent to each well and incubating for 3 additional hours. […] The protocol manager was selected “endpoint” on the spectrophotometer’s software (SoftMax Pro 7). The 96-well plates were inserted inside spectrophotometer, and the data were acquired. The percentage of cell viability was calculated using the following equation:(1) =(Average OD values of samples treated with the compound /Average OD values of no treatment samples )∗100

[3] = tested on: SK-OV-3 cells; test: Cellular uptake by flow cytometry in SK-OV-3 cells; format: cell-based, human; conditions: SK-OV-3, F’-FTC 2 µM, peptide 10 µM, 3 h
Protocol: (§1) CCRF-CEM and SK-OV-3 cells were used to measure the cellular uptake of a fluorescent-labeled phosphopeptide (F’-GpYEEI) (2 µM), stavudine (F’-d4T) (2 µM) lamivudine (F’-3TC) (1–2 µM), emtricitabine (F’-FTC) (2 µM), and siRNA (F’-siRNA) (36 nM) with the least toxic concentration for each linear and the cyclic peptide (10 µM). The uptake was measured in the presence and absence of the peptides. The SK-OV-3 (0.5 million) and CCRF-CEM (a million) cells were incubated in each well of 6-well plates with the synthesized peptide and the fluorescent-labeled compound in one well. Another well contained the fluorescent-labeled compound alone for 3 h in an incubator (37 °C in a humidified atmosphere of 5% CO2). […] For more details, please refer back to the cytotoxicity method described above.
The cells were transferred to FACS analysis tubes after being washed with phosphate-buffered saline (PBS). […] Finally, the cells were resuspended in flow cytometry buffer and analyzed by flow cytometry (FACSVerse model, Becton Dickinson, San Jose, CA, USA) using the FITC channel and the BD FACSuite software. […] Finally, the cells were analyzed by using FITC channel […] argon laser for the excitation and the emitted 519 nm fluorescence for detection. […] Results were evaluated to determine whether the peptides are facilitating the fluorescence compound to cross the membrane.

[4] = tested on: CCRF-CEM cells; test: Cellular uptake by flow cytometry in CCRF-CEM cells; format: cell-based, human; conditions: 3 h
Protocol: as §1
The cells were transferred to FACS analysis tubes after being washed with phosphate-buffered saline (PBS). The cells were centrifuged 2500 RPM for 5 min with Fisher Scientific accuSpin Micro 17 to precipitate the cells and to allow replacing the supernatant. The cells were then vortexed with Nerl Blood Bank Saline pH 7–7.2 (flow cytometry buffer) and transferred to the tube through a sterile cell strainer 40 µm Nylon Mesh. Finally, the cells were resuspended in flow cytometry buffer and analyzed by flow cytometry (FACSVerse model, Becton Dickinson, San Jose, CA, USA) using the FITC channel and the BD FACSuite software. The device was washed before each experiment, and the flow rate was set at medium. Finally, the cells were analyzed by using FITC channel […] argon laser for the excitation and the emitted 519 nm fluorescence for detection. The data presented was based on the FITC-A mean intensity signal for 10,000 cells collected. All assays were performed in triplicates. Results were evaluated to determine whether the peptides are facilitating the fluorescence compound to cross the membrane.
To determine the mechanism of the cellular uptake, F’-[K(DipR)5] or the physical mixture of the F’-GpYEEI and [DipR]5 were used to measure the fluorescence in the treated CCRF-CEM cells. F’-[K(DipR)5] (5 or 10 µM) or the physical mixture of the F’-GpYEEI (2 µM) and [DipR]5 (5 or 10 µM) were incubated with CCRF-CEM cells over 3 h. After each incubation, the medium containing the peptide and cells was removed. The same protocol as the cellular uptake study was used to prepare the cells as described above. Finally, the cells were resuspended in the buffer and analyzed by flow cytometry using the FITC channel and the BD FACSuite software. The data presented was based on the percentage of FITC-A mean intensity signal for 10,000 cells collected. All assays were performed in triplicates.

Structure (SMILES): N=C(N)NCCC[C@@H]1NC(=O)[C@H](C(c2ccccc2)c2ccccc2)NC(=O)[C@H](CCCNC(=N)N)NC(=O)[C@H](C(c2ccccc2)c2ccccc2)NC(=O)[C@H](CCCNC(=N)N)NC(=O)[C@H](C(c2ccccc2)c2ccccc2)NC(=O)[C@H](CCCNC(=N)N)NC(=O)[C@H](C(c2ccccc2)c2ccccc2)NC(=O)[C@H](CCCNC(=N)N)NC(=O)[C@H](C(c2ccccc2)c2ccccc2)NC1=O [[DipR]5] (cyclo([Dip]R[Dip]R[Dip]R[Dip]R[Dip]R))
- stability in human plasma ([1]; 0-13 h, LC-QTOF-MS): high stability
- metabolised at 1 h, 500 µM ([1]; after 1 h, LC-QTOF-MS EIC peak area relative to 0 min, read-out: degradation in human plasma): ~15%
- reduction of cell proliferation ([2]; SK-OV-3, 10 µM, 72 h incubation): 75%
- reduction of cell proliferation ([2]; SK-OV-3, 25 µM, 24 h incubation): 81%
- increase of cellular uptake of F’-FTC [3]: 6 fold
- increase of cellular uptake of F′-3TC vs cargo alone ([4]; F’-3TC 2 µM, peptide 10 µM, flow cytometry, n = 3): 14 fold
- increase of cellular uptake of F’-FTC vs cargo alone ([4]; F’-FTC 2 µM, peptide 10 µM, flow cytometry, n = 3): 13 fold
- increase of cellular uptake of F’-GpYEEI ([4]; F’-GpYEEI 2 µM, peptide 5 µM, n = 3): 43 fold
- cellular uptake of F’-GpYEEI relative to [R5K]W7A ([4]; side-by-side comparison, F’-GpYEEI 2 µM, peptides 10 µM): 5 fold
